“And” between values parts separate entries of the source, which are not always exact repeats. Identical values can stand only once. “Also recorded” adds a separate entry of the source. Like-named read-outs stand apart in the source and are kept apart here.
Assays:
[1] = test system: Poliovirus type 1 (ATCC VR-192); type: cell-based
[2] = test system: Adenovirus type 5 (ATCC VR-5); type: cell-based
[3] = test system: murine Norovirus (cepa S99 Berlin); type: cell-based
[4] = test system: Coronavirus 229E (ATCC VR-740); type: cell-based, human Coronavirus 229E
SARS-CoV-2 = details: cited from earlier work
[5] = test system: Vaccinia virus (Orthopoxvirus); details: monohydrochloride; cited from earlier work
[6] = test system: Bovine Parainfluenza 3 virus (ATCC VR-281); details: 200 ppm in water, after 5 and 60 minutes; monohydrochloride; cited from earlier work
[7] = in vivo; cited from earlier work
[8] = test system: Herpes simplex virus type 1; details: 200 ppm in water, after 5 and 60 minutes; monohydrochloride; cited from earlier work
[9] = rats; cited from earlier work

For `C=O` [Formaldehyde, formaldehyde, reference compound], the “log10 TCID50 after 30 min” value [1] was 5.00 log10 TCID50, the “log10 TCID50 after 60 min” value [1] was 3.07 log10 TCID50 and the Level of cytotoxicity (Vero, ref. FTVE cells; African green monkey) was 0.5. For the same compound, the “log10 TCID50 after 30 min” value [2] was 2.58 log10 TCID50, the “log10 TCID50 after 60 min” value [2] was 1.33 log10 TCID50 and the “log10 TCID50 after 30 min” value [3] was 3.16 log10 TCID50. The “log10 TCID50 after 60 min” value [3] was 1.74 log10 TCID50, the “log10 TCID50 after 5 min” value [4] was 3.58 log10 TCID50 and the “log10 TCID50 after 15 min” value [4] was 2.49 log10 TCID50. It also gave a Level of cytotoxicity (MRC-5, ref. FTMR cells; human) of 0.5.

In the case of `[H]/N=C(\N/C(=N/[H])NCCCCCCNC(=N)NC(=N)Nc1ccc(Cl)cc1)Nc1ccc(Cl)cc1` [chlorhexidine], the “reduction in viral titres” value (SARS-CoV-2) is listed as less than 2 log fold.

For `CCO` [ethanol], the “effect on virus infectivity” value (SARS-CoV-2; ethanol alone at <23%) is given as “no effect”.

In the case of “L-arginine, N^α-lauroyl-ethyl ester monohydrochloride [LAE®]”, the “antiviral activity, remaining virus (TCID50)” value [5] is listed as “No remaining virus was detected; also recorded: effective”, the “effectiveness against the virus” value [1] is listed as “not effective” and the “viricidal activity (reduction ≥4 log10)” value [1] is listed as “has no viricidal activity”. The “Reduction with 95% confidence interval after 30 minutes” value ([1]; monohydrochloride) was 2.33±0.53 and 1.82±0.52 and 1.49±0.46 and 1.82 ± 0.52 log10 and 1.49 ± 0.46 log10 and 2.33 ± 0.53 log10, the “antiviral activity, remaining virus (TCID50)” value [6] was “No remaining virus was detected; also recorded: effective” and the Level of cytotoxicity (Vero, ref. FTVE cells) was 0.5. For the same compound, the “toxicity to animals and humans” value [7] was “completely harmless”, the “effectiveness against the virus” value [4] was “effective” and the “reduction (maximum effects)” value [4] was greater than 4 logo. The “viricidal activity (reduction ≥4 log10)” value [4] was “has viricidal activity”, the “antiviral activity, remaining virus (TCID50)” value [8] was “No remaining virus was detected; also recorded: effective” and the absorption and metabolization [9] was “fast absorption and metabolization”. It also gave a Level of cytotoxicity (MRC-5, ref. FTMR cells) of 0.5.

Reference: patent US20230151302A1, “Cationic surfactants, in particular ethyl lauroyl arginate LAE, for treating or preventing infections and contaminations with Coronavirus” (priority 2020, published 2023)
